Earlier results in patent US9763983B2, “Natural killer cells from placenta” (ANTHROGENESIS CORPORATION, priority 2013, dated 2017).

Conditions: disclosed in US 2005/0096351 A1; for hygroscopicity: polymorphic form

hygroscopicity	Compound	stability / interconversion of polymorphic form
–	Nc1cccc2c1CN(C1CCC(=O)NC1=O)C2=O (stereo not shown) [Form B, 3-(4-amino-1-oxo-1,3 dihydro-isoindol-2-yl)-piperidene-2,6-dione]	converts to Form E in aqueous solvent systems
either weakly or not hygroscopic	Nc1cccc2c1CN(C1CCC(=O)NC1=O)C2=O (stereo not shown) [Form D, 3-(4-amino-1-oxo-1,3 dihydro-isoindol-2-yl)-piperidene-2,6-dione]	convert to Form B when stressed at higher relative humidities
not hygroscopic below about 85% RH	Nc1cccc2c1CN(C1CCC(=O)NC1=O)C2=O (stereo not shown) [Form C, 3-(4-amino-1-oxo-1,3 dihydro-isoindol-2-yl)-piperidene-2,6-dione]	can convert to Form B at higher relative humidities
weakly or not hygroscopic	Nc1cccc2c1CN(C1CCC(=O)NC1=O)C2=O (stereo not shown) [Form A, 3-(4-amino-1-oxo-1,3 dihydro-isoindol-2-yl)-piperidene-2,6-dione]	most thermodynamically stable anhydrous polymorph
